The record followed here is patent US20090221607A1, “Piperazine Derivatives” (M's Science Corporation, priority 2006, published 2009).

By IC50 is commonly meant the concentration that inhibits the measured activity by half. Low values mean higher potency, high ones lower potency.

The experiment has as its target T1, σ1 receptors (Homo sapiens, UniProt Q99720).
T1 construct: endogenous in cells; host or cells: HEK-293 cell membranes
The experiment in a line: σ1 receptor binding assay ((+)-[3H]pentazocine displacement, HEK-293 cell membranes). To be noted: 10 nM (+)-[3H]-pentazocine, 120 min at 37° C. The protocol: Sigma-1 (σ1) and sigma-2 (σ2) receptor binding assays are carried out in membranes from HEK-293 (Human Embryonic Kidney) cells.
Confluent HEK-293 cells are harvested in PBS/5 mM EDTA. They are centrifuged at 2000 rpm for 5 min and then washed two times in PBS. Cells are homogenized in 20 mM Tris-HCL (pH=7.5) containing 5 mM EDTA, 0.5 mM PMSF and 0.5 μg/mL leupeptin using a Dounce homogenizer and sonicated for 5 minutes.
Nuclear debris and intact cells are removed by centrifugation at 3000 rpm for 10 minutes at 4° C. The supernatant is centrifuged at 12000 rpm for 30 minutes and the resulting pellet is resuspended in 25 mM Tris-HCL (pH=7.5), 25 mM Mg2Cl, 10% sucrose containing 0.5 mM PMSF, 2 mM AEBSF, 1 mM EDTA, 130 μM bestatin, 14 μM E-64, 1 μM leupeptin and […] aprotinin.
Proteins are determined using the Bio Rad Protein Assay Dye Reagent and the membranes are aliquoted and frozen at −80° C. […]
Total binding is determined by incubating 50 μg of HEK-293 cell membranes with 10 nM (+)-[^3H]-pentazocine (Perkin-Elmer, 35 Ci/mmol) and assay buffer (50 mM Tris-HCl, pH=8.3) in a total volume of 200 μl. Non specific binding is determined in the presence of 10 μM unlabeled pentazocine. […] The filters are washed three times and the membrane-bound radioactivity is determined in a Microbeta scintillation counter. […]
Specific binding is determined by subtraction of non specific binding from total binding. […]

Where a name gives a salt, the structure may show the parent alone.

T1 sequence (Q99720 whole entry): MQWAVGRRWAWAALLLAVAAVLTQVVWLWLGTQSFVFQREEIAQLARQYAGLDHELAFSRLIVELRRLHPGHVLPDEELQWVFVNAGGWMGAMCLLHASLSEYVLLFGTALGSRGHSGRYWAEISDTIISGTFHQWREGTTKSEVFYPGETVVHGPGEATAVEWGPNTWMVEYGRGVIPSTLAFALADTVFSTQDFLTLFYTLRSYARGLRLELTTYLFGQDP

Take `Fc1ccccc1OCCN1CCN(CCOc2ccccc2F)CC1` [Example 1, 1,4-Bis-[2-(2-fluorophenoxy)ethyl]piperazine dihydrochloride]: the IC50 was below 700 nM.
The molecule `Fc1ccc(OCCN2CCN(CCOc3ccc(F)cc3)CC2)cc1` [1,4-bis-[2-(4-fluorophenoxy)ethyl]piperazine] returned an IC50 below 700 nM.
